{"source": "patent EP1192182B1", "about": "“PITUITARY ADENYLATE CYCLASE ACTIVATING PEPTIDE (PACAP) RECEPTOR 3 (R3) AGONISTS AND THEIR PHARMACOLOGICAL METHODS OF USE” (priority 1999, dated 2001)", "key": {"[1]": {"assay": "Airway hyperresponsiveness in the primate acute asthma model", "format": "in vivo, cynomolgus monkeys (Macaca fascicularis)", "procedure": "Male cynomolgus monkeys (Macaca fascicularis) used in this study were maintained at constant temperature and humidity, with a twelve hour light cycle. They were fed twice daily, except on an experimental day when food was withheld the night before the procedure. Water was available ad lib at all times.\nAirway hyperresponsiveness (AHR)(baseline) was measured 1 week before the control (no treatment) antigen challenge, and again 24hrs after antigen challenge. Antigen-induced airway hyperresponsiveness was measured by a fall in the PC100 (the concentration of methacholine required to cause a 100% increase in lung resistance) at 24hr compared to baseline. After 2 weeks rest, another baseline measurement of AHR was performed. […] AHR was again measured, and the fall in PC100 with treatment was compared to that without treatment. […]\nThe endotracheal tube was connected to a Harvard Ventilator adjusted to deliver 30-35 breaths per minute. Airflow was measured by a Fleisch pneumotachograph and thoracic pressure was measured by a validyne pressure transducer (as the difference between the pressure at the distal end of the et tube and room pressure). […]\nAntigen challenge: This was an inhalation challenge with Ascaris suum. […] 30 breaths of antigen were administered after which the acute bronchoconstriction was monitored for 15min. […]"}, "rat islets": {"tested_on": "rat islets", "assay": "Insulin release from isolated rat islets", "format": "cell-based, Sprague-Dawley rats", "settings": "peptide 10nM for 2hrs, 8mM glucose; % of [insulin] in 8mM glucose alone", "procedure": "Sprague Dawley rats (275-320 g) were used as the source of donor islets. Briefly, the pancreas was filled with 10 ml of cold reconstituted Liberase RI (Boehringer Manheim), harvested and incubated with additional 5 ml enzyme solution in water bath for 30 minutes. Tissue suspension was washed twice with cold 10% FBS/Hanks buffer (Gibco), resuspended in 8 ml 25% ficoll (Sigma) and then layered with 5 ml each of 23%, 20% and 11 % ficoll. The islets in the 20% layer after centrifugation were removed, washed twice with cold 10% FBS/Hank buffer and resuspended in 10% FBS/RPMI 1640 media (Sigma).\nIslet insulin release: Rat islets were isolated from Sprague-Dawley rats as described in example 1 and treated with either vehicle or specified peptide (10nM) for 2hrs. Insulin concentration in the medium was measured with the Linco rat insulin RIA kit. Glucose concentration in the medium was 8mM. The data are expressed as % of [insulin] in 8mM glucose alone. No polypeptide-induced Increases in insulin concentration were observed al 3 mM glucose; thus, the insulin releasing activity of these polypeptides are glucose-dependent. It should be noted that the following Table includes data for polypeptides which are not part of the present invention."}, "[2]": {"assay": "Intraperitoneal glucose tolerance test (IPGTT), plasma glucose", "format": "in vivo, Wistar rats", "settings": "plasma glucose area under the curve after IPGTT (1 g/kg glucose), % of vehicle; 1 nmol/kg peptide i.v.", "procedure": "Wistar rats are fasted overnight and then anesthetized with pentobarbital. The rats were eye-bled (zero time) and the peptide ( in 1% human albumin) was injected into the tail vein. Five minutes later, 1 g/kg of glucose (in saline) was injected intraperitoneally, and the rats were eye-bled after 15, 30 and 60 minutes. Plasma glucose levels were determined using the Technicon Axon autoanalyzer, Bayer Diagnosics division of Bayer Corporation, Tarrytown NY, operated using Method No. SM4-2143F90 \"Glucose\".\nIn accordance with the protocol of example 2 above, overnight fasted Wistar rats were anesthetized with pentobarital; i.v. injected with glucose ± peptide and eye bled after 1 minute. N=12 rats/group. […] The peptide or vehicle was given i.v. followed by a glucose load given i.p. in accordance with example 3. The plasma glucose was followed over the time period indicated.\nWistar rats were fasted overnight and then anesthetized with Pentobarbital. The rats were eye-bled (zero time) and the peptide (in 1 % human albumin) was injected subcutaneously. Five minutes later, 1 g/kg of glucose (in saline) was injected intraperitoneally, and the rats were eye-bled after 30 minutes.\nPlasma glucose: Data are expressed as % of vehicle of plasma glucose area under the curve after IPGTT (1 g/kg glucose) after treatment with 1 nmol/kg dose of the peptide. […] The present Inventors have shown for the first time that this is because the effects of R2 and R3 on glucose tend to cancel each other out. […] Therefore, R3-selectlvlty appears to be a desirable attribute for medicaments which are to be employed in achieving blood glucose reduction, for treatment of type 2 diabetes."}, "[3]": {"tested_on": "guinea pig tracheal smooth muscle", "settings": "Bolin et al 1995; US 5,677,419; cited from earlier work"}, "PACAP-R3": {"target": "T1, PACAP-R3 (Homo sapiens, UniProt P41587)", "T1 sequence (P41587 24-438)": "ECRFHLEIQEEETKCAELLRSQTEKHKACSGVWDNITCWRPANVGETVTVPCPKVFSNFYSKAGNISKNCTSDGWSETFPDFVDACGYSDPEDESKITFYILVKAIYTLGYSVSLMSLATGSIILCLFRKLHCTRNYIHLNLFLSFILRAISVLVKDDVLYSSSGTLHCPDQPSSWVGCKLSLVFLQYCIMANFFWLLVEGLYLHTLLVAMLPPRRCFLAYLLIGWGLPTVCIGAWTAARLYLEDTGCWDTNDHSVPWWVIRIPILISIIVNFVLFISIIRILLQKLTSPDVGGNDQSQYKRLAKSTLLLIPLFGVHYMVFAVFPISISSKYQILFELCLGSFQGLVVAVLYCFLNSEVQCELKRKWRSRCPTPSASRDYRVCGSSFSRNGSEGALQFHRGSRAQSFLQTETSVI", "settings": "literature; cited from earlier work"}}, "note": "Positions of bridges follow the written chain, without caps; N, C: chain ends. Non-standard residues stand in square brackets, D forms with d. Residues, ends and D or L forms follow the SMILES beside them. Nle = CCCC[C@H](N)C(=O)O", "data": [{"compound": "CCCC[C@H](NC(=O)[C@H](CCC(N)=O)NC(=O)[C@H](CCCCN)NC(=O)[C@H](CCCNC(=N)N)NC(=O)[C@H](CC(C)C)NC(=O)[C@H](CCCCN)NC(=O)[C@@H](NC(=O)[C@H](Cc1ccc(O)cc1)NC(=O)[C@H](CC(N)=O)NC(=O)[C@H](CCC(=O)O)NC(=O)[C@@H](NC(=O)[C@H](Cc1ccccc1)NC(=O)[C@@H](NC(=O)[C@H](C)NC(=O)[C@H](CC(=O)O)NC(=O)[C@H](CO)NC(=O)[C@H](Cc1c[nH]cn1)NC(C)=O)C(C)C)[C@@H](C)O)[C@@H](C)O)C(=O)N[C@@H](C)C(=O)N[C@@H](C)C(=O)N[C@@H](CCCCN)C(=O)N[C@H]1CCCCNC(=O)C[C@@H](C(=O)N[C@@H](CC(C)C)C(=O)N[C@@H](CCCCN)C(=O)N[C@@H](CCCCN)C(=O)NCC(=O)NCC(=O)N[C@H](C(N)=O)[C@@H](C)O)NC(=O)[C@H](CC(N)=O)NC(=O)[C@H](CC(C)C)NC(=O)[C@H](Cc2ccc(O)cc2)NC1=O", "note": "[Peptide R3P0] (Ac-HSDAVFTENYTKLRKQ[Nle]AAKKYLNDLKKGGT-NH2; lactam 21-25 (inferred))", "values": [{"measurement": "Delta log10 PC100, Mean, Treated", "setting": "[1]; 0.6ug/mg aerosol 10 minutes before antigen challenge, +24hr minus baseline, N 4", "result": -0.150}, {"measurement": "% Inhibition of induced AHR", "setting": "[1]; 0.6ug/mg aerosol, P(Treated vs Control) 0.240", "result": 54, "unit": "%"}, {"measurement": "Islet Insulin Release (% of Basal)", "setting": "rat islets", "result": "264 % of Basal"}, {"measurement": "Plasma Glucose (% of Basal) i.v.", "setting": "[2]", "result": "77 % of Basal"}, {"measurement": "relaxing guinea pig tracheal smooth muscle", "setting": "[3]", "result": "active"}, {"measurement": "PACAP-R3 selectivity", "setting": "PACAP-R3", "result": "greater than 100 fold"}]}]}
